From ChEMBL document CHEMBL1201862, “PubChem BioAssay data set” (2004)
Activity calls are given as the source filed them.

What was measured:
Leucine aminopeptidase = target: T1, Leucine aminopeptidase (Plasmodium falciparum 3D7, UniProt Q8IL11); assay: P. falciparum M17LAP inhibitors, primary screen, biochemical, fluorogenic H-Leu-NHMec substrate, 1536-well (AID 1619); type: functional
T1 sequence (Q8IL11 whole entry): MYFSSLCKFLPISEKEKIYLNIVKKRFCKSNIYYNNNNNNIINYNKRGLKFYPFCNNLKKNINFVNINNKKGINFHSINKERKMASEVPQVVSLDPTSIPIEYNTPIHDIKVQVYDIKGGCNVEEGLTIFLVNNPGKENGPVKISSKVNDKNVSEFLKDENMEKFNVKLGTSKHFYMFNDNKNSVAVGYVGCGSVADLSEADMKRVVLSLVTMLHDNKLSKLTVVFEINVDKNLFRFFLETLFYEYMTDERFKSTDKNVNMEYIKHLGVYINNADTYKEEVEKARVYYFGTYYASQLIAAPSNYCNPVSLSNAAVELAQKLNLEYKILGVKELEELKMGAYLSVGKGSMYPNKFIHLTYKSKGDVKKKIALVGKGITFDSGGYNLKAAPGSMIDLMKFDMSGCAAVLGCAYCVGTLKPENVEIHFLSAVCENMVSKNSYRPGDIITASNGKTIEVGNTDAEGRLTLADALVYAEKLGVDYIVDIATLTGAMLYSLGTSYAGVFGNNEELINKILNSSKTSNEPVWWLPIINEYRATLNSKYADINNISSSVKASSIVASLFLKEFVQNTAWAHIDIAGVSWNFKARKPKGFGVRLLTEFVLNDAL

Aspartyl aminopeptidase = target: T2, Aspartyl aminopeptidase (Plasmodium falciparum 3D7, UniProt Q8I2J3); assay: Counterscreen for inhibitors of M1 and M17 aminopeptidases: QFRET-based biochemical high throughput dose response assay for inhibitors of the Plasmodium falciparum M18 Aspartyl Aminopeptidase (PFM18AAP). [Related PubChem assays: 1619 (Screening assay (M17LAP inhibitors).), 1445 (Screening assay (M1AAP inhibitors).)]
T2 sequence (Q8I2J3 whole entry): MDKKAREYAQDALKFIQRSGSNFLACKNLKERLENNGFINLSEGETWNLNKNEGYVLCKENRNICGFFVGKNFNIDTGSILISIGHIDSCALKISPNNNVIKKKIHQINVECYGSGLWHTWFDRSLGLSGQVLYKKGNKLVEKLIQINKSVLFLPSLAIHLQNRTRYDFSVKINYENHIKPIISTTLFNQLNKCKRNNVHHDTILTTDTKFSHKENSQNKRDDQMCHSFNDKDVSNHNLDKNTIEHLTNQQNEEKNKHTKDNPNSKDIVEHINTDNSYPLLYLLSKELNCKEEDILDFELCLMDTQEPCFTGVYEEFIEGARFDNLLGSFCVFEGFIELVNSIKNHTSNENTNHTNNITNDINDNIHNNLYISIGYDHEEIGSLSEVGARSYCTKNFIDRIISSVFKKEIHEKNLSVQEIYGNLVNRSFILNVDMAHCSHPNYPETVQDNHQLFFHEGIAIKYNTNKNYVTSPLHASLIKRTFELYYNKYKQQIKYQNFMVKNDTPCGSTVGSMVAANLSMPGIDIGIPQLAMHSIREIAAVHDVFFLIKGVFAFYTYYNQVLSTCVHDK

Procathepsin L = Procathepsin L (Homo sapiens, UniProt P07711); assay: CTSL1 protease inhibition – biochemical, QFRET, 1536-well, counter-screen for M1/M17 aminopeptidase inhibitor project, dose response (AID 2214)
Cytochrome P450 2C19 = Cytochrome P450 2C19 (Homo sapiens, UniProt P33261); assay: Cytochrome panel assay with activity outcomes. Panel member name: p450-cyp2c19 Compounds with AC50 equal or less than 10 uM are considered active; type: functional; settings: read-out: AC50
Cytochrome P450 3A4 = Cytochrome P450 3A4 (Homo sapiens, UniProt P08684);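 also: CYP3A4 tested as one member of a cytochrome P450 panel screen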
[1] = target: T3, Histone-lysine N-methyltransferase NSD2 (Homo sapiens, UniProt O96028); type: biochemical
T3 sequence (O96028 whole entry): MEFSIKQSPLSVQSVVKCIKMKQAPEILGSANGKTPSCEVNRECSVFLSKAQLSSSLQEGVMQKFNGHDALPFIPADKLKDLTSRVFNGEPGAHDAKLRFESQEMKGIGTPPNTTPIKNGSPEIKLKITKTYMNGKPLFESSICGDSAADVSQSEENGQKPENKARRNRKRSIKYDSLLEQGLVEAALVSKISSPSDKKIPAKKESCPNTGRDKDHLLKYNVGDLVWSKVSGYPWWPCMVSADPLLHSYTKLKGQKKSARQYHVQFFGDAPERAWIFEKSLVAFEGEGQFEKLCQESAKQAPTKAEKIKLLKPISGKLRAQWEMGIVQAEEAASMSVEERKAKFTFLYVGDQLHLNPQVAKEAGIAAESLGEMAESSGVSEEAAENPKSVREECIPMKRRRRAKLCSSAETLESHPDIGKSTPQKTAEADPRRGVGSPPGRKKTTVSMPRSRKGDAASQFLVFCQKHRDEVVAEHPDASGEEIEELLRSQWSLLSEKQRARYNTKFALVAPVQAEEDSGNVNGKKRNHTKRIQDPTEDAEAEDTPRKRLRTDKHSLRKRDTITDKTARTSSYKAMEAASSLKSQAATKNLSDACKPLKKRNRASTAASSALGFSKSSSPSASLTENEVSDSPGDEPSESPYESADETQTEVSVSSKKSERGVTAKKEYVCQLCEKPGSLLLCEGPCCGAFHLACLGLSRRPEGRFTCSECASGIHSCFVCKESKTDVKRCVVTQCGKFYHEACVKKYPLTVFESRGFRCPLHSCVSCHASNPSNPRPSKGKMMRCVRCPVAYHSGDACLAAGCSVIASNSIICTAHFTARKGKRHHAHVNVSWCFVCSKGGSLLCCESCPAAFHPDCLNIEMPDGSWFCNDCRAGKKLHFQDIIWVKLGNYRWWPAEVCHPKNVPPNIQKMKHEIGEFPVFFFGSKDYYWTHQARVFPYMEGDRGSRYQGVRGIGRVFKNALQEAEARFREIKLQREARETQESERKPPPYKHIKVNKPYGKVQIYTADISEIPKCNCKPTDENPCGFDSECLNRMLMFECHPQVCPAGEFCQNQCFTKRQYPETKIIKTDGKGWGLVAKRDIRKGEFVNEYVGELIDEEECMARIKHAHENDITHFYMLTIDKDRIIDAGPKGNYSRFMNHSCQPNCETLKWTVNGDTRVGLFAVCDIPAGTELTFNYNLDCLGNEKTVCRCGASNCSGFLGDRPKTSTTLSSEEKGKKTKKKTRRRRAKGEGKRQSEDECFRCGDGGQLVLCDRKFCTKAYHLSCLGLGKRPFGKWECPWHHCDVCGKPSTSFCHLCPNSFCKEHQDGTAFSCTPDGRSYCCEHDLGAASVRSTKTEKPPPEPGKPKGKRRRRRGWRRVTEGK

[2] = target: Ras and Rab interactor 1/Tyrosine-protein kinase ABL1 (Homo sapiens, UniProt P00519+Q13671); type: functional;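 also: biochemical TR-FRET dose-response test measuring inhibition of binding between Rin1 and Abl proteins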
[3] = target: T4, Apoptotic protease-activating factor 1 (Homo sapiens, UniProt O14727); type: functional
T4 sequence (O14727 whole entry): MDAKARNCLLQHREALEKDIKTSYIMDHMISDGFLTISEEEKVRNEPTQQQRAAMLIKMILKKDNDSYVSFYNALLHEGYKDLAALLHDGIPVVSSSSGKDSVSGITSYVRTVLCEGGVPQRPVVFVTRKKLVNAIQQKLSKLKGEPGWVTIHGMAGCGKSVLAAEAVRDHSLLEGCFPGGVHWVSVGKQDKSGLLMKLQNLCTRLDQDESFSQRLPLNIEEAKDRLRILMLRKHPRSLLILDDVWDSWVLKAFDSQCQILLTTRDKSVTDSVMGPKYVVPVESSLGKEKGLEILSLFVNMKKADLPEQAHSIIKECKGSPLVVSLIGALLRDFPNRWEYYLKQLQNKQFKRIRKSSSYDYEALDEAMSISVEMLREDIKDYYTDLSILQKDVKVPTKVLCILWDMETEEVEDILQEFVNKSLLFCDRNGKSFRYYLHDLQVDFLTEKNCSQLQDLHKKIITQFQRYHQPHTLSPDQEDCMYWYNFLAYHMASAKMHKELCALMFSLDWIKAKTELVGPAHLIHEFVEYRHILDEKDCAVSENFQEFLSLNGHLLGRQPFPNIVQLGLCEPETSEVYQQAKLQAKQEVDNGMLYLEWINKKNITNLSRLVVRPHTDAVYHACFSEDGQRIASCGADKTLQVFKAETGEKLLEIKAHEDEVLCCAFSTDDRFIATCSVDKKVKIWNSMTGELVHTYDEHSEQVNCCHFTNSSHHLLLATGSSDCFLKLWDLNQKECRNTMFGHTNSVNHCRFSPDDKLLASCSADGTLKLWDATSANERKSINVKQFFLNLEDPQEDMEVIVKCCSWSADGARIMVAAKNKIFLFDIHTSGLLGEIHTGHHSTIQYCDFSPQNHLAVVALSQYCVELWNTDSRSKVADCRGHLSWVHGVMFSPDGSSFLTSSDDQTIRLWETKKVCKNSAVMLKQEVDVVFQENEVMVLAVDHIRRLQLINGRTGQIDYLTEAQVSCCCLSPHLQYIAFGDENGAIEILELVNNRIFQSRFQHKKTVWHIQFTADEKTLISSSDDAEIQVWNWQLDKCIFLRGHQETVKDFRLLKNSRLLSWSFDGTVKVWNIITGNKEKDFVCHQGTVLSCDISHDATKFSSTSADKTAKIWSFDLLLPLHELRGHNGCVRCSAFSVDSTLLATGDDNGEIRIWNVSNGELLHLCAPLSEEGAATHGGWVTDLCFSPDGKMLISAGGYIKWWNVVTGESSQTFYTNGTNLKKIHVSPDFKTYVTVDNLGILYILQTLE

[4] = target: Serine/threonine-protein phosphatase PP1-alpha catalytic subunit (Homo sapiens, UniProt P62136); assay: inhibition of protein phosphatase 1 activity – biochemical, fluorescence, dose response (AID 2394)
[5] = target: T5, Tyrosyl-DNA phosphodiesterase 2 (Homo sapiens, UniProt O95551); assay: potency against TDP2 phosphodiesterase activity – biochemical, epi absorbance, IC50, dose response (AID 743297)
T5 sequence (O95551 whole entry): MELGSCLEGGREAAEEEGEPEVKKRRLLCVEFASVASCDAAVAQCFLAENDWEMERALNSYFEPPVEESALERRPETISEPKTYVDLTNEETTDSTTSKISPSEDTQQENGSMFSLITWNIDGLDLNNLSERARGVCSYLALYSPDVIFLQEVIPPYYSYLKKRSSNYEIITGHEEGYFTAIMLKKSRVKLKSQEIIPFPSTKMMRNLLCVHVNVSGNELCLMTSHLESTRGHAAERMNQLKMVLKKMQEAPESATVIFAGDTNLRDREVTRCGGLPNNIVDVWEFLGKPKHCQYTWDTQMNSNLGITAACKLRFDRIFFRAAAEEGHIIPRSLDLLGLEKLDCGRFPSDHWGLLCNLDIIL

[6] = target: T6, Serine/threonine-protein phosphatase (Homo sapiens, UniProt Q9BPW0); assay: inhibition of protein phosphatase 5 activity – biochemical, fluorescence, dose response (AID 2395)
T6 sequence (Q9BPW0 whole entry): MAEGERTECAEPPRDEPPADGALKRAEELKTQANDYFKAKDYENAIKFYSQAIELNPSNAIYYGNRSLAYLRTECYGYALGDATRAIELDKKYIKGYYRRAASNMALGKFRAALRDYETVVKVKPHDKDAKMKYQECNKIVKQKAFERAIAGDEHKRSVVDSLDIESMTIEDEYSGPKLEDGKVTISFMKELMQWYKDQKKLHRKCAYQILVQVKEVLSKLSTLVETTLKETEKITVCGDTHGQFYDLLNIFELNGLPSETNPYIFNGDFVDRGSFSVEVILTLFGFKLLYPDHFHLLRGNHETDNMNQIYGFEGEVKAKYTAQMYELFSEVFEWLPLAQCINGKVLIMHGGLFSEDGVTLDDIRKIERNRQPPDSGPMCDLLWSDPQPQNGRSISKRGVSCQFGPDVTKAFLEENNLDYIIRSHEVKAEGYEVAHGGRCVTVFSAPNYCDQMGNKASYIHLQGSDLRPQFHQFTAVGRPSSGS

Procathepsin L, sequence (P07711 whole entry): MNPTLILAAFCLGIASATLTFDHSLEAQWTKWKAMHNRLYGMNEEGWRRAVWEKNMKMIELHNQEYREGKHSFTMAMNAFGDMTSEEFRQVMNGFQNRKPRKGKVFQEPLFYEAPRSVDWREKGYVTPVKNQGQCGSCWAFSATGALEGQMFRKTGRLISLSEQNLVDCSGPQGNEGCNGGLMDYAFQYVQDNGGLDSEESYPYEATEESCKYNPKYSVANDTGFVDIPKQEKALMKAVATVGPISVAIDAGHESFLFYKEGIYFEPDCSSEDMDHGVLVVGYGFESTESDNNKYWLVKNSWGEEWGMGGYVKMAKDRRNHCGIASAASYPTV
Ras and Rab interactor 1/Tyrosine-protein kinase ABL1, sequence (P00519 whole entry): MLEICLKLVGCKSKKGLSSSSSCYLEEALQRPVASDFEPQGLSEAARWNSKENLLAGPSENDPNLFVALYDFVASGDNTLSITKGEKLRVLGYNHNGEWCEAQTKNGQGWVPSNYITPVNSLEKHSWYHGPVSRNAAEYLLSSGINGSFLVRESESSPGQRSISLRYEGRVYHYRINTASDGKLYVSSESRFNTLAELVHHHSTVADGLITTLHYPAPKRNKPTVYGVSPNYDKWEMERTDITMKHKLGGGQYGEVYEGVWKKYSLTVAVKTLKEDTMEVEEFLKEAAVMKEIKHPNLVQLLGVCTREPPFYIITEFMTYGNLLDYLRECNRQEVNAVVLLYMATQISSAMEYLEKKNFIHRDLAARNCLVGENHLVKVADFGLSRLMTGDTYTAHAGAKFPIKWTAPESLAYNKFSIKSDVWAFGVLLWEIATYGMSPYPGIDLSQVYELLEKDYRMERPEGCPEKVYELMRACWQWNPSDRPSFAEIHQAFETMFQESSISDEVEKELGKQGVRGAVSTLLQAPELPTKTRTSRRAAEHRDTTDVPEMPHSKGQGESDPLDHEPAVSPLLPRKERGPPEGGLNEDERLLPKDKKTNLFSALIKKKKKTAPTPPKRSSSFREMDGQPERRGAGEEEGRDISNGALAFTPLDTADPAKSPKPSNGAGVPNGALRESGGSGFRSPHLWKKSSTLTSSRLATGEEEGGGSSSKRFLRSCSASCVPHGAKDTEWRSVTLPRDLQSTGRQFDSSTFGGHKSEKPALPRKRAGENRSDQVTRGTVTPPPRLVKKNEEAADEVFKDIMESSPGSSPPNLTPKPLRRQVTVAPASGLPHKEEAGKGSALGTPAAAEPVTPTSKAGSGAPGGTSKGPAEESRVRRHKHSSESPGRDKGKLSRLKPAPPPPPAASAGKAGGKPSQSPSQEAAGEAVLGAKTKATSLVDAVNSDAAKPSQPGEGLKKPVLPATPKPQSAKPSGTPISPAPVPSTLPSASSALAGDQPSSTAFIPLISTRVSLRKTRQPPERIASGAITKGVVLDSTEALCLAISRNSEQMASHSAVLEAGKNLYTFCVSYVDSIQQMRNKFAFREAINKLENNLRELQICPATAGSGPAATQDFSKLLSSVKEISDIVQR
Ras and Rab interactor 1/Tyrosine-protein kinase ABL1, sequence (Q13671 whole entry): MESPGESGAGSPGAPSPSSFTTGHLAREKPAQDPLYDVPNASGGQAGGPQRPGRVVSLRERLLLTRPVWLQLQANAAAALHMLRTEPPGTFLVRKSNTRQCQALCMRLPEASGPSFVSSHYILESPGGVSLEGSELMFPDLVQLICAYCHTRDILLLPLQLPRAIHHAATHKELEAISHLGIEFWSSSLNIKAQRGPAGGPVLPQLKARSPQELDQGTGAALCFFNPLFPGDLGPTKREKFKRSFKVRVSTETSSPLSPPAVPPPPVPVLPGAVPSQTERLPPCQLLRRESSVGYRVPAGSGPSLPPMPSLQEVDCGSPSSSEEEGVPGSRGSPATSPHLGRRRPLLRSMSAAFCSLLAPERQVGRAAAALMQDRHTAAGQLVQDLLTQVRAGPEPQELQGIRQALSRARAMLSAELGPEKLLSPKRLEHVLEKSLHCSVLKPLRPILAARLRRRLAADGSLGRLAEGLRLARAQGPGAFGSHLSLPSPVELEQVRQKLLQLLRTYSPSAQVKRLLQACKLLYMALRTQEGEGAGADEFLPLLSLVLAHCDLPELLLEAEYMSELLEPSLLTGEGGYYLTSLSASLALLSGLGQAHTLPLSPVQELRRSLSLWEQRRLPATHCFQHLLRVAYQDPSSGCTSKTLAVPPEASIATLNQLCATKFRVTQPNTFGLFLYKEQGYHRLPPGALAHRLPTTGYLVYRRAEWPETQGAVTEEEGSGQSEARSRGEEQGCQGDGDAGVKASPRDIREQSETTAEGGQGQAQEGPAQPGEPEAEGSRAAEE
Cytochrome P450 2C19, sequence (P33261 whole entry): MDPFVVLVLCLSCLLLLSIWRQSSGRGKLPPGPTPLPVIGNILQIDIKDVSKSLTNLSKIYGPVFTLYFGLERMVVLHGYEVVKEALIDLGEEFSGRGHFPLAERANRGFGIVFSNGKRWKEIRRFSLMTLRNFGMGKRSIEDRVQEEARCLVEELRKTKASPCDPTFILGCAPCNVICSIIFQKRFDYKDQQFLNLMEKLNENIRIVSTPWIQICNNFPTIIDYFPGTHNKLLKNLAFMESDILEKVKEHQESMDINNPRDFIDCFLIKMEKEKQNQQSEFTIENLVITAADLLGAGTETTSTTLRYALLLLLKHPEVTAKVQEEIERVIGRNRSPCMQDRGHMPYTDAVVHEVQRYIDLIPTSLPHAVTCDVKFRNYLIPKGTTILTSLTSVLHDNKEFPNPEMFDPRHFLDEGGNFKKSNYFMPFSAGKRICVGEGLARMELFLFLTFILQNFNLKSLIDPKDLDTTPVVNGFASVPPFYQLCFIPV
Serine/threonine-protein phosphatase PP1-alpha catalytic subunit, sequence (P62136 whole entry): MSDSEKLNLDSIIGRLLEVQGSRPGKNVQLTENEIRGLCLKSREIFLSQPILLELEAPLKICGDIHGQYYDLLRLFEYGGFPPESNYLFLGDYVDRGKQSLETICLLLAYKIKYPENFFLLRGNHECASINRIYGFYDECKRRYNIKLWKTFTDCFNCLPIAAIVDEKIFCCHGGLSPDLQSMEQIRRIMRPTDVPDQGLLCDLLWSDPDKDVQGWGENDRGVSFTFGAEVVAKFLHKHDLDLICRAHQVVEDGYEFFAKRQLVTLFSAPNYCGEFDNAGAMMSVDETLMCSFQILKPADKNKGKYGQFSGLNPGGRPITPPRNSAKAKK
Cytochrome P450 3A4, sequence (P08684 whole entry): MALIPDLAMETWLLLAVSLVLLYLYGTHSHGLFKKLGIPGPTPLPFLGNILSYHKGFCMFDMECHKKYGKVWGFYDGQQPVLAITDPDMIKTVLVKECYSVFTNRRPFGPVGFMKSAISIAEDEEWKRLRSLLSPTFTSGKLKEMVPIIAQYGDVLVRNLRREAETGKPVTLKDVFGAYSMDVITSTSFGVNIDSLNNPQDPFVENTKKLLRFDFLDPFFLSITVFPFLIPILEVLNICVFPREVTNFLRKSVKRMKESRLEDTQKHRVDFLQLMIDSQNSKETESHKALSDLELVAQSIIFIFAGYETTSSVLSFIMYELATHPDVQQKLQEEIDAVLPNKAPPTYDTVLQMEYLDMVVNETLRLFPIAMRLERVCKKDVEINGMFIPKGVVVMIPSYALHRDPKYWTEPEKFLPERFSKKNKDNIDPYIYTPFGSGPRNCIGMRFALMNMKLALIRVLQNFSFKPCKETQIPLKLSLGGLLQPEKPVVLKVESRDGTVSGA

| Structure (SMILES) | IC50 (Leucine aminopeptidase) | IC50 (Aspartyl aminopeptidase) | IC50 (Procathepsin L) | AC50 (Cytochrome P450 2C19) | AC50 (Cytochrome P450 3A4) | AC50 [1] | IC50 [2] | IC50 [3] | IC50 [4] | IC50 [5] | IC50 [6] |
| --- | --- | --- | --- | --- | --- | --- | --- | --- | --- | --- | --- |
| O=C(O)Cc1ccc(NC(=O)Nc2cccc(Cl)c2)cc1 | 1.7 µM (active) | > 73.5 µM (not active) | > 59.6 µM (not active) |  |  |  |  |  |  |  |  |
| Cc1ccc(-c2c(C)sc(NC(=O)C3C4CCC(O4)C3C(=O)O)c2C(=O)OC(C)C)cc1 (centres undefined) | 7.67 µM (active) | > 73.5 µM (not active) | > 59.6 µM (not active) | 28.2 µM (inconclusive) | 14.1 µM (inconclusive) |  |  |  |  |  |  |
| CC(=O)C(C(C)=O)C1(O)C(=O)c2ccccc2C1=O |  |  |  |  |  | 5.35 µM (active) | > 73.5 µM (inactive) | 9.72 µM (active) | > 67 µM (not active) | 9.1 µM (active) | > 22.3 µM (not active) |
